In patent US9737502B2, “Calebin A for hepatic steatosis” (SAMI LABS LIMITED, priority 2011, dated 2017):
Marks after values point to notes of the source that are not given here.

Legend:
[1] = tested on: Fully differentiated adipocytes; experiment: Lipolysis (glycerol release) in fully differentiated adipocytes; assay type: cell-based, Mouse; details: fully differentiated adipocytes (8 days)
Method: Fully differentiated adipocytes (8 days) previously untreated with Calebin A as described in procedural steps outlined in Example IV were treated with Calebin A at concentrations of 5-30 μM. Lipolysis was linked to the breakdown of lipids into glycerol that was released into the cell culture medium and detected thereof. […] Thus, in another most preferred embodiment, the present invention relates to a method of inducing lipolysis in mammalian adipocytes, said method comprising the step of treating mammalian adipocytes with varying concentrations of Calebin A to bring about the effect of dose dependant lipolysis in said adipocytes. […] Epididymal fat pads were dissected and fixed in 10% buffered formalin for at least 24 hours, then dehydrated with a sequence of ethanol solutions and processed for embedding in paraffin. Sections of 5-6 μm in thickness were cut, de-paraffinized, rehydrated, stained with haematoxylin & eosin (H&E) and subjected to photomicroscopic assessment. Adipocyte size was determined using a Nikon light microscope (Japan) equipped with an ocular micrometer at 200× magnification in 10 random fields per section. […]

[2] = Study 2: body weight and liver weight in high fat diet induced obese mice; assay type: in vivo, C57 mice; details: for LIVER WEIGHT: male group, Day 57, High fat diet Control 1.60 ± 0.35
From the text: The animals were fed ad libitum with AMRUT Laboratory Animal Feed manufactured by Pranav Agro Industries Limited, Sangli, Maharastra throughout the acclimatization. Open Source Diet D12450B diet (with 10 kcal % Fat) and Open Source Diet D12492 High fat diet (with 60 kcal % Fat) manufactured by Research Diet Inc, USA procured from Indus Marketing, Hyderabad, Andhra Pradesh, INDIA was used for induction of obesity and the main study.
The animals were divided into 5 groups viz., Group 1, 2, 3, 4 and 5 consisting of 10 animals (5 male and 5 female) each.
The G1 Control group animals were fed with normal control diet feed D12450B containing 10 kcal % fat and the G2 to G5 group animals were fed with high fat diet feed D12492 containing 60 kcal % fat during the induction of obesity and during main study.
The main study was started after the induction of obesity. The 3 doses of Calebin A was administered to animals from Day 29 daily consecutively for a period of 28 days. The feeding of diets continued in the main study in a similar way as performed in induction of obesity. The G1 Control and G2 High fat diet control group animals were administered with 0.5% CMC (Carboxy Methyl Cellulose) while other group animals received test item from Day 29 to Day 56 of the study period. The dose volume of administration was maintained according to the weekly body weight of individual animals. The total duration of the study was 61 days (5 days Acclimatization period+28 days Induction of obesity+28 days Main study).
Individual animal body weights were recorded on the day of receipt on Day 1 and weekly (±1 day) thereafter during the study period.
Further, after completion of the study period (Day 57) the animals were humanely sacrificed by exposure to excess CO2 in gas chamber and organ weights were noted. The brain, thymus, liver, adrenals, kidneys (paired), spleen, heart and ovaries/testes (paired) from all animals were trimmed off any adherent tissue, as appropriate and weighed wet as soon as possible to avoid drying. While in general, there was no statistically significant difference in organ weights in males and females, organ specific improvements in weight, example for liver in the male group was observable (See TABLE X). […] It may be noted that Behnke, A. R. 1953. Lean body mass. A.M.A. Arch. Int. Med. 91, 585 indicates liver as an index of lean body mass promotion and H. F. Kraybill et al, J ANIM SCI 1954, 13:548-555 indicate that other visceral organs may also be equally predictive of lean body mass promotion. It is quite possible that statistical significance in terms of sustainable increase in organ weights without indications of toxicity may be achieved with a larger sample size (more number of tested animals) over extended testing periods.

Compound: COc1cc(/C=C/C(=O)COC(=O)/C=C/c2ccc(O)c(OC)c2)ccc1O [Calebin A]
- release of glycerol into the medium (lipolysis) ([1]; 30 μM): Glycerol was detected
- release of glycerol into the medium (lipolysis) ([1]; 5-20 μM): did not bring about the release of glycerol
- BODY WEIGHT ([2]; females, G3 5 mg/kg + High fat diet, Day 1 (obesity induction, before dosing)): 22.36 ± 0.65 grams
- BODY WEIGHT ([2]; females, G3 5 mg/kg + High fat diet, Day 8 (obesity induction, before dosing)): 23.18 ± 0.79 grams
- BODY WEIGHT ([2]; females, G3 5 mg/kg + High fat diet, Day 15 (obesity induction, before dosing)): 24.36 ± 0.87 grams
- BODY WEIGHT ([2]; females, G3 5 mg/kg + High fat diet, Day 22 (obesity induction, before dosing)): 25.66 ± 0.48 grams
- BODY WEIGHT ([2]; females, G3 5 mg/kg + High fat diet, Day 29 (start of daily dosing)): 27.40*^a ± grams
- BODY WEIGHT ([2]; females, G3 5 mg/kg + High fat diet, Day 36 (dosing Day 29-56)): 28.18**^a ± grams
- BODY WEIGHT ([2]; females, G3 5 mg/kg + High fat diet, Day 43 (dosing Day 29-56)): 28.46*^a,**^b ± grams
- BODY WEIGHT ([2]; females, G3 5 mg/kg + High fat diet, Day 50 (dosing Day 29-56)): 28.20***^b ± grams
- BODY WEIGHT ([2]; females, G3 5 mg/kg + High fat diet, Day 56 (dosing Day 29-56)): 28.12***^b ± grams
- BODY WEIGHT ([2]; females, G4 10 mg/kg + High fat diet, Day 1 (obesity induction, before dosing)): 23.16 ± 0.99 grams
- BODY WEIGHT ([2]; females, G4 10 mg/kg + High fat diet, Day 8 (obesity induction, before dosing)): 24.16 ± 1.29 grams
- BODY WEIGHT ([2]; females, G4 10 mg/kg + High fat diet, Day 15 (obesity induction, before dosing)): 25.62 ± 1.26 grams
- BODY WEIGHT ([2]; females, G4 10 mg/kg + High fat diet, Day 22 (obesity induction, before dosing)): 26.76 ± 1.27 grams
- BODY WEIGHT ([2]; females, G4 10 mg/kg + High fat diet, Day 29 (start of daily dosing)): 28.46***^a ± grams
- BODY WEIGHT ([2]; females, G4 10 mg/kg + High fat diet, Day 36 (dosing Day 29-56)): 28.64***^a ± grams
- BODY WEIGHT ([2]; females, G4 10 mg/kg + High fat diet, Day 43 (dosing Day 29-56)): 28.16*^a,***^b ± grams
- BODY WEIGHT ([2]; females, G4 10 mg/kg + High fat diet, Day 50 (dosing Day 29-56)): 27.54***^b ± grams
- BODY WEIGHT ([2]; females, G4 10 mg/kg + High fat diet, Day 56 (dosing Day 29-56)): 27.04***^b ± grams
- BODY WEIGHT ([2]; females, G5 20 mg/kg + High fat diet, Day 1 (obesity induction, before dosing)): 23.52 ± 1.10 grams
- BODY WEIGHT ([2]; females, G5 20 mg/kg + High fat diet, Day 8 (obesity induction, before dosing)): 24.66 ± 1.24 grams
- BODY WEIGHT ([2]; females, G5 20 mg/kg + High fat diet, Day 15 (obesity induction, before dosing)): 26.26 ^a ± 1.05 ^ grams
- BODY WEIGHT ([2]; females, G5 20 mg/kg + High fat diet, Day 22 (obesity induction, before dosing)): 27.26 ^a ± 1.25 ^ grams
- BODY WEIGHT ([2]; females, G5 20 mg/kg + High fat diet, Day 29 (start of daily dosing)): 28.74***^a ± grams
- BODY WEIGHT ([2]; females, G5 20 mg/kg + High fat diet, Day 36 (dosing Day 29-56)): 28.40**^a ± grams
- BODY WEIGHT ([2]; females, G5 20 mg/kg + High fat diet, Day 43 (dosing Day 29-56)): 27.80***^b ± grams
- BODY WEIGHT ([2]; females, G5 20 mg/kg + High fat diet, Day 50 (dosing Day 29-56)): 27.44***^b ± grams
- BODY WEIGHT ([2]; females, G5 20 mg/kg + High fat diet, Day 56 (dosing Day 29-56)): 27.10***^b ± grams
- effect on body weights of high fat diet induced obese animals ([2]; male and female C57 animals, 5, 10 and 20 mg/kg body weight): had an effect in decreasing the body weights
- LIVER WEIGHT ([2]; G3 5 mg/kg + High fat diet): 1.41 ± 0.17 g
- LIVER WEIGHT ([2]; G4 10 mg/kg + High fat diet): 1.25 ± 0.17 g
- LIVER WEIGHT ([2]; G5 20 mg/kg + High fat diet): 1.79 ± 0.19 g
- BODY WEIGHT ([2]; males, G3 5 mg/kg + High fat diet, Day 1 (obesity induction, before dosing)): 25.02 ± 1.45 grams
- BODY WEIGHT ([2]; males, G3 5 mg/kg + High fat diet, Day 8 (obesity induction, before dosing)): 25.78 ± 1.14 grams
- BODY WEIGHT ([2]; males, G3 5 mg/kg + High fat diet, Day 15 (obesity induction, before dosing)): 27.68 ± 0.95 grams
- BODY WEIGHT ([2]; males, G3 5 mg/kg + High fat diet, Day 22 (obesity induction, before dosing)): 29.98**^a ± 1.03 grams
- BODY WEIGHT ([2]; males, G3 5 mg/kg + High fat diet, Day 29 (start of daily dosing)): 30.92**^a ± grams
- BODY WEIGHT ([2]; males, G3 5 mg/kg + High fat diet, Day 36 (dosing Day 29-56)): 31.70*^a ± grams
- BODY WEIGHT ([2]; males, G3 5 mg/kg + High fat diet, Day 43 (dosing Day 29-56)): 30.84***^b ± grams
- BODY WEIGHT ([2]; males, G3 5 mg/kg + High fat diet, Day 50 (dosing Day 29-56)): 30.04***^b ± grams
- BODY WEIGHT ([2]; males, G3 5 mg/kg + High fat diet, Day 56 (dosing Day 29-56)): 29.98***^b ± grams
- BODY WEIGHT ([2]; males, G4 10 mg/kg + High fat diet, Day 1 (obesity induction, before dosing)): 25.28 ± 0.88 grams
- BODY WEIGHT ([2]; males, G4 10 mg/kg + High fat diet, Day 8 (obesity induction, before dosing)): 25.82 ± 0.91 grams
- BODY WEIGHT ([2]; males, G4 10 mg/kg + High fat diet, Day 15 (obesity induction, before dosing)): 27.58 ± 0.65 grams
- BODY WEIGHT ([2]; males, G4 10 mg/kg + High fat diet, Day 22 (obesity induction, before dosing)): 29.92**^a ± 0.97 grams
- BODY WEIGHT ([2]; males, G4 10 mg/kg + High fat diet, Day 29 (start of daily dosing)): 31.02**^a ± grams
- BODY WEIGHT ([2]; males, G4 10 mg/kg + High fat diet, Day 36 (dosing Day 29-56)): 31.06*^b ± grams
- BODY WEIGHT ([2]; males, G4 10 mg/kg + High fat diet, Day 43 (dosing Day 29-56)): 29.80***^b ± grams
- BODY WEIGHT ([2]; males, G4 10 mg/kg + High fat diet, Day 50 (dosing Day 29-56)): 28.98***^b ± grams
- BODY WEIGHT ([2]; males, G4 10 mg/kg + High fat diet, Day 56 (dosing Day 29-56)): 28.62***^b ± grams
- BODY WEIGHT ([2]; males, G5 20 mg/kg + High fat diet, Day 1 (obesity induction, before dosing)): 25.88 ± 1.25 grams
- BODY WEIGHT ([2]; males, G5 20 mg/kg + High fat diet, Day 8 (obesity induction, before dosing)): 26.66 ± 1.73 grams
- BODY WEIGHT ([2]; males, G5 20 mg/kg + High fat diet, Day 15 (obesity induction, before dosing)): 28.94*^a ± 1.59^ grams
- BODY WEIGHT ([2]; males, G5 20 mg/kg + High fat diet, Day 22 (obesity induction, before dosing)): 30.64**^a ± 1.16 grams
- BODY WEIGHT ([2]; males, G5 20 mg/kg + High fat diet, Day 29 (start of daily dosing)): 31.86***^a ± grams
- BODY WEIGHT ([2]; males, G5 20 mg/kg + High fat diet, Day 36 (dosing Day 29-56)): 31.48*^b ± grams
- BODY WEIGHT ([2]; males, G5 20 mg/kg + High fat diet, Day 43 (dosing Day 29-56)): 29.12***^b ± grams
- BODY WEIGHT ([2]; males, G5 20 mg/kg + High fat diet, Day 50 (dosing Day 29-56)): 27.74***^b ± grams
- BODY WEIGHT ([2]; males, G5 20 mg/kg + High fat diet, Day 56 (dosing Day 29-56)): 27.54***^b ± grams
